According to article PMC6723587 (Toxins, 2019):
Read-outs that look alike come from different tables or passages of the source.

Experiments:
[1] = for the sum of DON, DON3G, 3-ADON and 15-ADON; EFSA; cited from earlier work
[2] = cited from earlier work
[3] = in vivo
[4] = pigs, oral single dose DON3G 56 µg/kg bw; cited from earlier work
[5] = in vivo; remark: listed apart in the source
[6] = system: human cytosolic beta-glucosidases; conditions: in vitro incubation; cited from earlier work
[7] = pigs, cited from earlier work
[8] = oral single dose DON3G 116 µg/kg bw

CC(=O)O[C@@H]1C[C@]2(C)[C@@]3(CO)[C@H](O)C(=O)C(C)=C[C@H]3O[C@H]1[C@@]21CO1 [3-ADON, 3-acetyldeoxynivalenol]
tolerable daily intake (group-TDI) [1]: 1 µg/kg body weight (bw)/day

CC(=O)OC[C@]12[C@H](O)C(=O)C(C)=C[C@H]1O[C@@H]1[C@H](O)C[C@@]2(C)[C@]12CO2 [15-ADON, 15-acetyldeoxynivalenol]
tolerable daily intake (group-TDI) [1]: 1 µg/kg body weight (bw)/day

C=C1[C@@H]2O[C@@H]3C=C(C)C(=O)[C@@H](O)[C@]3(CO)[C@@]1(C)C[C@H]2O [DOM-1, de-epoxy-deoxynivalenol]
part of total DON3G recovered in urine ([2]; after administration of DON3G): approximately 7% | detection in urine [3]: Neither DON3G nor DOM-1 was detected

CC1=C[C@H]2O[C@@H]3[C@H](O[C@@H]4O[C@H](CO)[C@@H](O)[C@H](O)[C@H]4O)C[C@](C)([C@@]2(CO)[C@H](O)C1=O)[C@]31CO1 [DON3G, deoxynivalenol-3-glucoside]
detection in systemic plasma and vena porta plasma [4]: could not be detected | urine sample with the maximum excreted amount [5]: first voided urine sample | Fabs (fraction absorbed) ([5]; po): 0.53 | Ke (excretion rate constant) ([5]; po): 0.018 | maximum percentage absorbed in the volunteers ([5]; po): 84% | part absorbed as glucoside, % of the oral dose of DON3G ([5]; po): < 5% | percentage absorbed, variation among the volunteers ([5]; po): 29-84% | total amount excreted unchanged in urine, % of the administered dose ([5]; po): 1-5% | hydrolysis by human cytosolic beta-glucosidases [6]: did not hydrolyse | part of the dose excreted in urine during the first 8 h [7, 8]: approximately 2.5% | part of the dose excreted in urine during the rest of the 24-hour collection period [7, 8]: 1% | presence in urine after oral administration [7]: found in urine | detectability in urine twelve hours after administration ([2]; single dose of DON3G): not detectable | detection in urine [3]: Neither DON3G nor DOM-1 was detected | tolerable daily intake (group-TDI) [1]: 1 µg/kg body weight (bw)/day

CC1=C[C@H]2O[C@@H]3[C@H](O)C[C@](C)([C@@]2(CO)[C@H](O)C1=O)[C@]31CO1 [DON, deoxynivalenol]
Fabs (fraction absorbed) ([3]; both, human, po): 0.56 | maximum percentage absorbed in the volunteers ([3]; both, human, po): 98% | percentage absorbed, variation among the volunteers ([3]; both, human, po): 30-98% | tolerable daily intake (group-TDI) [1]: 1 µg/kg body weight (bw)/day
